Assay results taken from ChEMBL document CHEMBL3864169, “Quinazoline Carboxamides as Selective Antagonists of Adenosine 2A Receptor” (ACS Med Chem Lett, 2016).
pKi: −log10 of the molar value.

Target: Adenosine receptor A2a (Homo sapiens, UniProt P29274)
Assay: Displacement of [3H]5-amino-7-[2- phenethyl]-2-(furan-2-yl)-7H-pyrazolo[4,3-e][l,2,4]triazolo[l,5-c]pyrimidine from human adenosine A2A receptor expressed in HEK293 cell membranes measured after 1 hr by TopCount scintillation counting method

Sequence of Adenosine receptor A2a (P29274 whole entry): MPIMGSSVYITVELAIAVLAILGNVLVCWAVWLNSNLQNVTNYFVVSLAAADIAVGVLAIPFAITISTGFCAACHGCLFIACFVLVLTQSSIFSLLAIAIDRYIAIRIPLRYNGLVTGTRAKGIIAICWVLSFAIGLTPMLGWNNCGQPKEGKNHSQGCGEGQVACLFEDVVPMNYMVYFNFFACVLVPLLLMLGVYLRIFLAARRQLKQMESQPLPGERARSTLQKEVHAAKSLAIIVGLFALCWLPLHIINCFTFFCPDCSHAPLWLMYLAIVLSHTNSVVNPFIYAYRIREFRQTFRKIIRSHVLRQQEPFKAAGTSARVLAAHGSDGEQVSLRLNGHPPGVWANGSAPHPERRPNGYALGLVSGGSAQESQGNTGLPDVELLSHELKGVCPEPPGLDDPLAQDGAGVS

- pKi: 9.00
Structure (SMILES): CC(C)OCc1cccc(CNC(=O)c2nc(N)nc3c(F)cccc23)n1
